Source: ChEMBL document CHEMBL1201862, “PubChem BioAssay data set” (2004)
Blank lines part the entries; values can stand above or below the compound they belong to. Activity calls are given as the source filed them.

Columns and labels:
[1] = molecular target: DNA dC->dU-editing enzyme APOBEC-3A (Homo sapiens, UniProt P31941); assay: Dose Response confirmation of small molecule APOBEC3A DNA Deaminase Inhibitors via a fluorescence-based single-stranded DNA deaminase assay. [Related pubchem assays (depositor defined):AID493011, AID493024]; assay type: functional
[2] = molecular target: DNA dC->dU-editing enzyme APOBEC-3G (Homo sapiens, UniProt Q9HC16); assay type: functional;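 further: Dose-response counterscreen measuring inhibition of APOBEC3G DNA deaminase activity, run while confirming APOBEC3A inhibitors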
Phosphomannomutase 2 = Phosphomannomutase 2 (Homo sapiens, UniProt O15305); assay: Counter screen SAR assay for PMM2 inhibitors via a fluorescence intensity assay. [Related pubchem assays (depositor defined):AID1545, AID1574]
[3] = molecular target: 1-acylglycerol-3-phosphate O-acyltransferase ABHD5/Perilipin-5 (Homo sapiens, UniProt Q00G26+Q8WTS1); assay: Luminescence-based biochemical high throughput dose response assay for inhibitors of the interaction of the lipase co-activator protein, abhydrolase domain containing 5 (ABHD5) with perilipin-5 (MLDP; PLIN5) (2K validation set). [Related pubchem assays (depositor defined):AID493035, AID493241]
Perilipin-1/ABHD5 = Perilipin-1/ABHD5 (Homo sapiens, UniProt O60240+Q8WTS1); assay: Luminescence-based biochemical high throughput dose response assay for inhibitors of the interaction of the lipase co-activator protein, abhydrolase domain containing 5 (ABHD5) with perilipin-1 (PLIN1) (2K validation set). [Related pubchem assays (depositor defined):AID493027, AID493057]
Cytochrome P450 2C9 = Cytochrome P450 2C9 (Homo sapiens, UniProt P11712)
Cannabinoid receptor 2 [4] = molecular target: T1, Cannabinoid receptor 2 (Homo sapiens, UniProt P34972); assay: SAR analysis of antagonists of the Cannabinoid Receptor 2 using an Image-Based Assay - Set 2. [Related pubchem assays (depositor defined):AID1961, AID1965]; assay type: functional
[5] = molecular target: G-protein coupled receptor 55 (Homo sapiens, UniProt Q9Y2T6); assay: SAR analysis of selective Agonists of GPR55 using an Image-Based Assay - Set 2. [Related pubchem assays (depositor defined):AID1961, AID1965]; assay type: functional
Cannabinoid receptor 2 [6] = molecular target: T1, Cannabinoid receptor 2; assay: SAR analysis of agonists of the Cannabinoid Receptor 2 using an Image-Based Assay - Set 2. [Related pubchem assays (depositor defined):AID1961, AID1965]; assay type: functional
[7] = molecular target: T2, G-protein coupled receptor 35 (Homo sapiens, UniProt Q9HC97); assay: SAR analysis of Agonists of the GPR35 Receptor using an Image-Based Assay - Set 3. [Related pubchem assays (depositor defined):AID1961, AID1965]; assay type: functional
Cannabinoid receptor 1 [8] = molecular target: T3, Cannabinoid receptor 1 (Homo sapiens, UniProt P21554); assay: SAR analysis of antagonists of the Cannabinoid Receptor 1 using an Image-Based Assay - Set 3. [Related pubchem assays (depositor defined):AID1961, AID1965]; assay type: functional
Cannabinoid receptor 1 [9] = molecular target: T3, Cannabinoid receptor 1; assay: SAR analysis of agonists of the Cannabinoid Receptor 1 using an Image-Based Assay - Set 3. [Related pubchem assays (depositor defined):AID1961, AID1965]; assay type: functional
[10] = molecular target: T2, G-protein coupled receptor 35; assay: SAR analysis of Antagonists of the GPR35 Receptor using an Image-Based Assay - Set 4. [Related pubchem assays (depositor defined):[…]]; assay type: functional
Troponin, cardiac muscle = Troponin, cardiac muscle (Homo sapiens, UniProt P19429+P45379+P63316); assay: Fluorescence-based biochemical high throughput dose response assay for activators of the calcium sensitivity of cardiac Regulated Thin Filaments (RTF). [Related pubchem assays (depositor defined):AID493008, AID493018, AID504382, AID504383]; assay type: protein-complex assay

T1 sequence (P34972 whole entry): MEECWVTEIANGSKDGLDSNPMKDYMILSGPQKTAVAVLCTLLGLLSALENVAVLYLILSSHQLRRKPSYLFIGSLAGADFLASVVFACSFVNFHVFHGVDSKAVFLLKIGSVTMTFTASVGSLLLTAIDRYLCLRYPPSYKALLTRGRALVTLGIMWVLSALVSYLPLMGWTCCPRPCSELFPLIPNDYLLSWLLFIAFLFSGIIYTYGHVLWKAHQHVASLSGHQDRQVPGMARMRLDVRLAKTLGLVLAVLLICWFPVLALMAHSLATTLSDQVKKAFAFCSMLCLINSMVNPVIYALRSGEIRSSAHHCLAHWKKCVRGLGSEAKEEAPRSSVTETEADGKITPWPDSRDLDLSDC
T3 sequence (P21554 whole entry): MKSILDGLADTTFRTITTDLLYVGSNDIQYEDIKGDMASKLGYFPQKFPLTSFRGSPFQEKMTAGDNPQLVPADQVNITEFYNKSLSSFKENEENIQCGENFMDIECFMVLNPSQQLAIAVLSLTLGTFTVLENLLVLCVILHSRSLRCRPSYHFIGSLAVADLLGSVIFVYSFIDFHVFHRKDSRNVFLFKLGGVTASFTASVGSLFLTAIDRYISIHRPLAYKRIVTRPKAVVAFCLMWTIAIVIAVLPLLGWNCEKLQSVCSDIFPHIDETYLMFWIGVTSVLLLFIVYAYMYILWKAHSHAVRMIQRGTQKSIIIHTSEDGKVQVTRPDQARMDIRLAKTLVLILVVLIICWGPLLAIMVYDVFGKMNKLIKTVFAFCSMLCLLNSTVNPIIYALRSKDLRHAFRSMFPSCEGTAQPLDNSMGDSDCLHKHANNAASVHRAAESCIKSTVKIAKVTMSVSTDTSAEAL
T2 sequence (Q9HC97 whole entry): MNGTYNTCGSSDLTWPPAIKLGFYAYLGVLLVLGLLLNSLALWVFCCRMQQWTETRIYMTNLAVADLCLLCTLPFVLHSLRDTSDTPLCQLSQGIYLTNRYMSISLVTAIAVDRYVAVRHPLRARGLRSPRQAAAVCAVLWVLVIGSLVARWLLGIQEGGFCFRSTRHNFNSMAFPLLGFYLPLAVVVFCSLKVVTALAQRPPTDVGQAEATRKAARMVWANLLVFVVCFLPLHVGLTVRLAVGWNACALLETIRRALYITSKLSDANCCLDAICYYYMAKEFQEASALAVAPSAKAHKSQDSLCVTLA
1-acylglycerol-3-phosphate O-acyltransferase ABHD5/Perilipin-5, sequence (Q00G26 whole entry, the tested form may be a part): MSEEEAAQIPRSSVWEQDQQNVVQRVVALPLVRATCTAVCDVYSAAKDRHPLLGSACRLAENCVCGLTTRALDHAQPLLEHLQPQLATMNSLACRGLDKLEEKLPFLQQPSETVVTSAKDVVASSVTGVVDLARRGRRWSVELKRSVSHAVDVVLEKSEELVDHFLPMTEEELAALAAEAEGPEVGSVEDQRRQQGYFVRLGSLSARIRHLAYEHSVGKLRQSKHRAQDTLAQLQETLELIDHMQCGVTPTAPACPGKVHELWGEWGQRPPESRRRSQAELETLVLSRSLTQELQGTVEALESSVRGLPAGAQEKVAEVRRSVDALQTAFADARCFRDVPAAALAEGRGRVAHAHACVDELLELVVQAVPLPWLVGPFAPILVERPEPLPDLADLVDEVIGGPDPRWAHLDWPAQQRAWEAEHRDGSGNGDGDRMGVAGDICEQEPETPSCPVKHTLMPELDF
1-acylglycerol-3-phosphate O-acyltransferase ABHD5/Perilipin-5, sequence (Q8WTS1 whole entry, the tested form may be a part): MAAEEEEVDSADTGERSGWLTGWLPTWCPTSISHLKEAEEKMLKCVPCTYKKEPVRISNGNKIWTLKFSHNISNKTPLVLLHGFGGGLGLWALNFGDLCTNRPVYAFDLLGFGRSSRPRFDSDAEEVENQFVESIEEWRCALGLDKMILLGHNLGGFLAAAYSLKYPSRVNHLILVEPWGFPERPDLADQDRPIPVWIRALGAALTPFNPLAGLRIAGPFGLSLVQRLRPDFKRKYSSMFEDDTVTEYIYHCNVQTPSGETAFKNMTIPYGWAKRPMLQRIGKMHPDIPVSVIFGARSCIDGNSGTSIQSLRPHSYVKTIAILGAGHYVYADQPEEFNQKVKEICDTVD
Phosphomannomutase 2, sequence (O15305 whole entry, the tested form may be a part): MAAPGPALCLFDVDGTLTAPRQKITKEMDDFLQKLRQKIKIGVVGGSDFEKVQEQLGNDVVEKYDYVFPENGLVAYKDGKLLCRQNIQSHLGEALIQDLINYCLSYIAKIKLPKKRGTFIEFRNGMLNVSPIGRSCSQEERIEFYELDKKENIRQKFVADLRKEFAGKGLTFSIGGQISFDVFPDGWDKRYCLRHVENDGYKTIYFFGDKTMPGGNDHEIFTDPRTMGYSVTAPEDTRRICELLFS
DNA dC->dU-editing enzyme APOBEC-3A, sequence (P31941 whole entry): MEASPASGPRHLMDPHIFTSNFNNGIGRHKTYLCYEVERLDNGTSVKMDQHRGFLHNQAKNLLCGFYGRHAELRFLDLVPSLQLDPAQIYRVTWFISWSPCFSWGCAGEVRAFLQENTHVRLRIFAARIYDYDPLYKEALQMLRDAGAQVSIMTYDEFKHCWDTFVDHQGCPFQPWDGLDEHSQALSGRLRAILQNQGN
Cytochrome P450 2C9, sequence (P11712 whole entry): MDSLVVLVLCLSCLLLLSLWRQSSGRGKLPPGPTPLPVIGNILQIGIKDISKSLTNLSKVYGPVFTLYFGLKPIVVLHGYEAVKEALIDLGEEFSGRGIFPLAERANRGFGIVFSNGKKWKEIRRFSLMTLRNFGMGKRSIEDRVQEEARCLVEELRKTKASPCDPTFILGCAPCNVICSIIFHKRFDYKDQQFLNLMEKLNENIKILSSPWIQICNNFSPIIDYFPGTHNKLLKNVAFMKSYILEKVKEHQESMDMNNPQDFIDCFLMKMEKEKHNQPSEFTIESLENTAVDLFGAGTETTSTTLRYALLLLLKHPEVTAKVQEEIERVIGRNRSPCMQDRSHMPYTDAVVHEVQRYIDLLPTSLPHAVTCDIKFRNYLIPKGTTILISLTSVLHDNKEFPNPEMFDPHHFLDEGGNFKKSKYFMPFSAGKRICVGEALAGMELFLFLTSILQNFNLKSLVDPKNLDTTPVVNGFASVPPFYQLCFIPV
Perilipin-1/ABHD5, sequence (Q8WTS1 whole entry, the tested form may be a part): as the sequence (Q8WTS1 whole entry, the tested form may be a part) above
Perilipin-1/ABHD5, sequence (O60240 whole entry, the tested form may be a part): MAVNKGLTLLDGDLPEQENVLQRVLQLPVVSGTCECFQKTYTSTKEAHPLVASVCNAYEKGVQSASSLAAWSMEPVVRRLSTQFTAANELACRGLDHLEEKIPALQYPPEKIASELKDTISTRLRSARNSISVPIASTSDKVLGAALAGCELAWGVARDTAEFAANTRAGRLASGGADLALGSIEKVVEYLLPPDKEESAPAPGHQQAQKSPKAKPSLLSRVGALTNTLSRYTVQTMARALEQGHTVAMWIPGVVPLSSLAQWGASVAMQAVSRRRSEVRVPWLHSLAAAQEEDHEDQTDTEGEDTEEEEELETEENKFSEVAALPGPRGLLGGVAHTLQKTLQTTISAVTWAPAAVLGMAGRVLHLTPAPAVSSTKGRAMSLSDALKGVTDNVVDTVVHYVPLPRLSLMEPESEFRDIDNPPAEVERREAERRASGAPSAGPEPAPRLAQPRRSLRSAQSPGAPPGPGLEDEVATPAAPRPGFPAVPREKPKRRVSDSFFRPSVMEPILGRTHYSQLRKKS
DNA dC->dU-editing enzyme APOBEC-3G, sequence (Q9HC16 whole entry): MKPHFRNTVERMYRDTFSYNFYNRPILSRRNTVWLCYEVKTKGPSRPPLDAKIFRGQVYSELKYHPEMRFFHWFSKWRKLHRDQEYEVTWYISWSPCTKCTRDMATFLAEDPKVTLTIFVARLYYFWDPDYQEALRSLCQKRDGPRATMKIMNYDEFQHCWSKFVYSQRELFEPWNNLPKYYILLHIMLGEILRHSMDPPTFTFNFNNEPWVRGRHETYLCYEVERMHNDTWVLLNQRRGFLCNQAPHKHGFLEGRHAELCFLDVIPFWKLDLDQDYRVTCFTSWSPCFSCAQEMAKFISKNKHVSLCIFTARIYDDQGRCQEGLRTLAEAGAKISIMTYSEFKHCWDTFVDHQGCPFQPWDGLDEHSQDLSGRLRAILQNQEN
G-protein coupled receptor 55, sequence (Q9Y2T6 whole entry): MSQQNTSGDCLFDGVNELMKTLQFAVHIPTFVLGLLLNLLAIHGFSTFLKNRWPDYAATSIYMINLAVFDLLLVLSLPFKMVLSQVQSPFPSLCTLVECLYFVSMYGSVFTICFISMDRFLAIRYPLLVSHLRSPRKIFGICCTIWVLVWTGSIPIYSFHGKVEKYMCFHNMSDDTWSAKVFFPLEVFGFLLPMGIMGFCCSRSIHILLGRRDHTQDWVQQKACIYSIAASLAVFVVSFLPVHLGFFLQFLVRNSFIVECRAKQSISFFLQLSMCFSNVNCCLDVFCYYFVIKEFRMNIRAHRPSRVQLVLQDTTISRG

SMILES: CCc1ccc(OCC(=O)N/N=C\c2ccco2)c([N+](=O)[O-])c1
IC50 [1]: 18.6 µM (active)
IC50 [2]: 39.8 µM (active)

SMILES: CC1=CC(=O)c2ccccc2C1=O [MENADIONE]
IC50 [3]: 9.47 µM (active)
IC50 (Perilipin-1/ABHD5): 7.9 µM (active)
AC50 (Cytochrome P450 2C9): 6.31 µM (inconclusive)

Further lines, results first:

IC50 (Phosphomannomutase 2): > 100 µM (inactive)
SMILES: CN(C)c1cccc(/N=c2\ssnc2Cl)c1

IC50 (Cannabinoid receptor 2 [4]): > 32 µM (inactive)
EC50 [5]: > 32 µM (inactive)
EC50 (Cannabinoid receptor 2 [6]): > 32 µM (inactive)
EC50 [7]: > 32 µM (inactive)
IC50 (Cannabinoid receptor 1 [8]): > 32 µM (inactive)
EC50 (Cannabinoid receptor 1 [9]): > 32 µM (inactive)
IC50 [10]: > 32 µM (inactive)
SMILES: CCOc1ccccc1N1CCN(C(=O)c2cc(S(=O)(=O)N(C)C)ccc2N2CCCC2)CC1

EC50 (Troponin, cardiac muscle): > 71.5 µM (inactive)
SMILES: O=C(/C=C/c1nc2ccccc2s1)N1CCCCCC1
